From PubChem BioAssay (NCI)
“And” between values parts separate entries of the source, which are not always exact repeats. Identical values can stand only once.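 96-well plates; 48 h exposure; 5 concentrations. Endpoints by linear interpolation between flanking doses. Not reached: highest tested concentration assigned. Abbreviation: GI50, concentration required for 50% inhibition of growth. At the TGI there is no net growth.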

Tests used:
Test in all cases: NCI anticancer screen, dose series, 48 h
SK-MEL-28 melanoma = test system: SK-MEL-28 melanoma
MDA-MB-231 breast = test system: MDA-MB-231 breast
DU-145 prostate = test system: DU-145 prostate
U251 CNS = test system: U251 CNS
HCC-2998 colon = test system: HCC-2998 colon
OVCAR-8 ovarian = test system: OVCAR-8 ovarian
SK-OV-3 ovarian = test system: SK-OV-3 ovarian
HT29 colon = test system: HT29 colon
SNB-19 CNS = test system: SNB-19 CNS
EKVX NSCLC = test system: EKVX NSCLC

Structure (SMILES)	GI50 (SK-MEL-28 melanoma) [µM]	TGI (SK-MEL-28 melanoma) [µM]	GI50 (MDA-MB-231 breast)	TGI (MDA-MB-231 breast)	GI50 (DU-145 prostate)	TGI (DU-145 prostate) [µM]	GI50 (U251 CNS)	TGI (U251 CNS)	GI50 (HCC-2998 colon)	TGI (HCC-2998 colon)	GI50 (OVCAR-8 ovarian)	TGI (OVCAR-8 ovarian)	GI50 (SK-OV-3 ovarian)	TGI (SK-OV-3 ovarian)	GI50 (HT29 colon)	TGI (HT29 colon) [µM]	GI50 (SNB-19 CNS)	TGI (SNB-19 CNS) [µM]	GI50 (EKVX NSCLC)	TGI (EKVX NSCLC)
Cc1cc(C(=O)/C=C/c2ccc[nH]2)ccc1-n1ccc(C(F)(F)F)n1	41.8	> 100	27.6 µM	> 100 µM	24.8 µM	> 100	3.5 µM	> 100 µM	20.1 µM	> 100 µM	6.27 µM	> 100 µM	46.8 µM	> 100 µM	14.4 µM	> 100	21.4 µM	> 100	6.15 µM	> 100 µM
C=CC(COC(=O)C(C)(C)OC(C)=O)c1ccc(OC(=O)C(C)C)c(OC)c1 (centres undefined)	–	35.5	–	9.36 µM	–	25.9	–	25.8 µM	–	10.5 µM	–	> 89.3 µM	–	30.8 µM	–	> 36.1	–	23.2	–	34.1 µM
Cc1ccc(S(=O)(=O)OCC#CCOS(=O)(=O)c2ccc(C)cc2)cc1	2.69	7.8	3.39 µM	11 µM	1.86 µM	3.76	1.69 µM	3.22 µM	2.85 µM	8.73 µM	2.45 µM	> 21.5 µM	6.51 µM	14.9 µM	1.87 µM	4.17	7.11 µM	22.2	2.08 µM	4.38 µM
O=[N+]([O-])c1cccc(-c2nc(-c3ccc(Cl)cc3Cl)cn2-c2ccccc2)c1	6.76	24.2	1.93 µM	> 20.5 µM	0.574 µM	1.19	0.614 µM	1.26 µM	2.99 µM	> 17.6 µM	0.947 µM	2.64 µM	3.06 µM	29.9 µM	1.25 µM	5.42	2.55 µM	> 18.2	0.56 µM	2.5 µM
OB(O)c1ccccc1C#Cc1ccccc1B(O)O	–	99.3	–	66.3 µM	–	82.4	–	78.3 µM	–	40.9 µM	–	> 100 µM	–	> 100 µM	–	> 100	–	67.9	–	54.2 µM
CNCC/C=C1\c2cc3c(cc2-c2c1c1cc(OC)c(OC)cc1c(=O)n2C)OCO3	11.8	> 69.4	1.78 µM	13.6 µM	0.428 µM	8.84	0.309 µM	19.1 µM	3.41 µM	33.6 µM	0.248 µM	6.55 µM	3.28 µM	23.6 µM	0.21 µM	> 100	1.08 µM	23.1	2.36 µM	18.3 µM
C/C=C/C/C=C/[C@H](C)C[C@H](O)[C@@H]1C[C@@H]2O[C@H]2/C=C/[C@@H]2OC(C)(C)O[C@H]2/C=C/C[C@H](C)CC(=O)O1	47.8	> 100	36.1 µM	> 100 µM	12.3 µM	> 100	13.5 µM	> 100 µM	> 100 µM	> 100 µM	3.7 µM	> 100 µM	24.5 µM	> 100 µM	12 µM	> 100	21.7 µM	> 100	21 µM	> 100 µM
CCOC(=O)Nc1nc2ccccc2[nH]1	8.43	> 100	12.9 µM and 19.3 µM	> 100 µM	8.58 µM and 4.18 µM	> 100	5.2 µM and 4.48 µM	> 100 µM	19.8 µM and 95.3 µM	> 100 µM	7.6 µM and 7.04 µM	> 100 µM	4.69 µM and 4.19 µM	> 100 µM	3.96 µM and 3.99 µM	> 100	10.5 µM and 4.83 µM	> 100	> 24 µM	> 100 µM
Cc1cc(C(=O)Nc2n[nH]c3ccccc23)n[nH]1	> 100	> 100	> 100 µM	> 100 µM	> 100 µM	> 100	> 100 µM	> 100 µM	50.6 µM	> 100 µM	> 100 µM	> 100 µM	> 100 µM	> 100 µM	> 100 µM	> 100	> 100 µM	> 100	> 100 µM	> 100 µM
CN1CCN(c2ccc(OC(F)(F)F)c(Nc3ncc4c(n3)-c3c(c(C(N)=O)nn3CCO)CC4)c2)CC1	0.738	> 10	0.0755 µM and 0.059 µM	8.61 µM and 3.23 µM	0.0349 µM and 0.0417 µM	> 100	0.052 µM and 0.0628 µM	21.7 µM and > 10 µM	0.0487 µM and 0.174 µM	18.7 µM and > 4.38 µM	0.0506 µM and 0.0624 µM	61.5 µM and > 4.59 µM	0.108 µM and 0.124 µM	30.6 µM and > 10 µM	0.0349 µM and 0.0348 µM	> 82.9	0.0611 µM and 0.0674 µM	> 100	0.0907 µM and 0.169 µM	> 88.2 µM
CCCCCCCCCCCCCCCCCCNCc1ccc(Cl)cc1	13.8	28.8	1.84 µM	4.3 µM	2.06 µM	4.44	1.96 µM	3.85 µM	4.58 µM	18.9 µM	4.08 µM	16.6 µM	4.02 µM	16.9 µM	1.73 µM	3.46	3.31 µM	12	3.84 µM	18.7 µM
O=C1/C=C/[C@@H](O)[C@@H]2C[C@@H](O)C[C@H]2/C=C/CCC[C@H](CCc2ccc3ncccc3c2)O1	0.0637	0.837	0.167 µM	0.373 µM	0.564 µM	> 100	0.347 µM	> 100 µM	0.252 µM	4.99 µM	0.275 µM	> 47 µM	0.336 µM	> 32.1 µM	0.0905 µM	0.555	0.4 µM	> 100	0.289 µM	> 64.9 µM
COc1cccc(-c2nn(-c3ccccc3)cc2-c2ccnc(NCCCNC(=O)c3cccc(C(F)(F)F)c3)c2)c1	5.45	25.3	3.86 µM	25.7 µM	8.72 µM	66.3	4.37 µM	17.5 µM	3.96 µM	18.2 µM	4.67 µM	20.1 µM	7.04 µM	29.2 µM	3.61 µM	13.6	6.03 µM	31.2	5.01 µM	36.2 µM
CC1=C(/C=C/C(=O)CC(=O)/C=C/C2=C(C)CCCC2(C)C)C(C)(C)CCC1	27	> 100	52.3 µM	> 100 µM	14.3 µM	> 100	29.2 µM	> 100 µM	35.4 µM	> 100 µM	30.3 µM	> 100 µM	40.6 µM	> 100 µM	28.3 µM	> 100	33.2 µM	> 100	15.5 µM	52.8 µM
Cc1cc(-c2nnc(/C=C/c3ccc4c(c3)OCO4)o2)n[nH]1	24.1	> 50	16.9 µM	> 50 µM	9.17 µM	29.4	13.6 µM	> 50 µM	10.7 µM	> 50 µM	22.8 µM	> 50 µM	21.1 µM	> 50 µM	13.8 µM	43.4	32.6 µM	> 50	17.9 µM	> 50 µM
O=C1CC[C@H](N2Cc3c(OCc4ccc(CN5CCOCC5)cc4)cccc3C2=O)C(=O)N1	> 100	> 100	> 100 µM	> 100 µM	> 100 µM	> 100	> 100 µM	> 100 µM	> 100 µM	> 100 µM	> 100 µM	> 100 µM	> 100 µM	> 100 µM	> 100 µM	> 100	> 100 µM	> 100	> 100 µM	> 100 µM
CCCCCCCCCC[C@@H](O)[C@@H]1CC[C@@H]([C@@H]2CC[C@@H]([C@@H](O)CCCCCCCCCC[C@H](O)CC3=CC(C)OC3=O)O2)O1 (some centres undefined)	5.25	> 28.8	8.01 µM	24.6 µM	23.5 µM	> 100	–	> 46 µM	–	9.13 µM	–	8.06 µM and > 54.7 µM	–	21.9 µM	26.4 µM	–	–	24.6	1.98 µM	8.5 µM and > 80 µM
CC[C@@]1(OC(=O)C(N)CCCCN)C(=O)OCc2c1cc1n(c2=O)Cc2cc3ccccc3nc2-1 (some centres undefined)	–	16.1	–	> 100 µM	–	0.25	–	> 11.6 µM	–	2.11 µM	–	3.1 µM	–	12 µM	–	11.4	–	12.2	–	> 30.6 µM
